Measured values from patent US20070238711A1, “Combination Therapy with Glatiramer Acetate and Minocycline for the Treatment of Multiple Sclerosis” (priority 2004, published 2007).
Values joined by “and” are separate entries in the source; they are usually repeats but may differ in a detail not shown here. Identical values can stand only once.

Key:
EAE [1] = conditions: cited from earlier work
moderate EAE = test: Experiment 2: low doses of glatiramer acetate and minocycline on moderate EAE; format: in vivo, C57/BL6 mice; conditions: sub-optimal doses, FIG. 4
Source text: The protocol of Experiment 1 was followed. […] The number of mice in each group was as follows: 8 in the vehicle group, 11 in the minocycline group, 10 in the Copaxone® group, and 9 in the combination group.

severe EAE = test: Experiment 1: low doses of glatiramer acetate and minocycline on severe EAE (MOG-induced); format: in vivo, C57/BL6 mice; design: key to EAE clinical score, individual mouse / EAE clinical score, group average (ave): composite score 0 = no symptoms, 14 = fully quadriplegic, 15 = death; key to Sum of Scores, individual mouse / Sum of Scores, group average (ave): sum of daily clinical scores (0–15 scale) over the experiment; conditions: for effect on clinical scores of EAE: severe EAE, sub-optimal doses, FIG. 2; for Sum of Scores, group average (ave) / Sum of Scores, individual mouse: sum of daily clinical scores over the entire experiment; for effect on disease severity: summary of Experiments 1-2, sub-optimal doses
Method: Intraperitoneal pertussis toxin was given on the day of MOG administration and also 2 days after. FIG. 1 presents a layout of the experimental design. Minocycline was administered intraperitoneally at a sub-optimal dose (25 mg/kg) when the first mouse in the entire experiment developed signs of EAE (See FIG. 1). Minocycline was administered daily until mice were sacrificed. […] Thus, we have developed a new system in order to better differentiate functional outcomes. […] For the tail: 0—no symptoms […] For each of the hind limbs or fore limbs, each assessed separately: 0—no symptoms […] Thus, a fully paralysed quadriplegic animal would attain a score of 14. […] Death is automatically given a score of 15. Another parameter that we have employed is the “sum of scores”. This refers to the addition of each daily clinical score over the entire period of the experiment. This is a reflection of the total burden of disease, and takes into account variations in onset of disease, and the daily scores.

EAE [2] = test: Experiment 3: high doses of glatiramer acetate and minocycline on EAE; format: in vivo, C57/BL6 mice; conditions: Copaxone 375 μg, minocycline 37.5 mg/kg
Method: The effects of all treatments versus the control are analyzed histologically (hematoxylin-eosin and Luxol fast blue for evidence of inflammation and demyelination, respectively). Cellular infiltrates are characterized by CD3, CD4, CD8, CD56 and CD19 immunohistochemistry. Blind evaluation (on a qualitative scale from + to ++++) is conducted on the following: the density of perivascular infiltrates, the distance of migration of leukocytes into the CNS parenchyma from blood vessels, and the degree of demyelination. The neuropathological assessments are focused on the optic nerve, lumbar cord and brainstem.

T lymphocytes = conditions: previous observation; cited from earlier work
R-R MS = conditions: versus placebo, 9-month trial; cited from earlier work
multiple sclerosis = conditions: daily subcutaneous injections, 20 mg/injection; cited from earlier work
[3] = Day 0, 15-point scale, Copaxone 250 μg, minocycline 25 mg/kg i.p.

Molecule | effect on EAE severity / disease course (moderate EAE) | EAE clinical score, group average (ave) (severe EAE; Day 0) | EAE clinical score, individual mouse (severe EAE; [3]) | EAE clinical score, group average (ave) (severe EAE; Day 9) | EAE clinical score, individual mouse (severe EAE; Day 9) | EAE clinical score, group average (ave) (severe EAE; Day 10) | EAE clinical score, individual mouse (severe EAE; Day 10) | EAE clinical score, group average (ave) (severe EAE; Day 11) | EAE clinical score, individual mouse (severe EAE; Day 11) | EAE clinical score, group average (ave) (severe EAE; Day 12) | EAE clinical score, individual mouse (severe EAE; Day 12) | EAE clinical score, group average (ave) (severe EAE; Day 13) | EAE clinical score, individual mouse (severe EAE; Day 13) | EAE clinical score, group average (ave) (severe EAE; Day 14) | EAE clinical score, individual mouse (severe EAE; Day 14) | EAE clinical score, group average (ave) (severe EAE; Day 15) | EAE clinical score, individual mouse (severe EAE; Day 15) | EAE clinical score, group average (ave) (severe EAE; Day 16) | EAE clinical score, individual mouse (severe EAE; Day 16) | EAE clinical score, group average (ave) (severe EAE; Day 17) | also measured
CN(C)c1ccc(O)c2c1C[C@H]1C[C@H]3[C@H](N(C)C)C(O)=C(C(N)=O)C(=O)[C@@]3(O)C(O)=C1C2=O [Minocycline, [4S-(4∝,4a∝,5a∝,12a∝)]-4,7-bis(dimethylamino)-1,4,4a,5,5a,6,11,12a-octahydro-3,10,12,12a-tetrahydroxy-1,11-dioxo-2-naphthacenecarboxamide] | did not elicit a clinical response | 0 | 0 | 4 | 3 (2×) and 4 (7×) | 4 | 4 (6×) and 6 (2×) and 3 | 6 | 8 and 5 and 6 (2×) and 7 (4×) and 4 | 7 | 7 (2×) and 6 and 9 and 8 (4×) and 4 | 8 | 7 and 9 (6×) and 4 and 10 | 9 | 8 (2×) and 10 (5×) and 4 and 9 | 9 | 11 and 10 (5×) and 9 and 4 and 6 | 9 | 11 and 10 (3×) and 8 (3×) and 9 and 3 | 8 | disease activity (EAE [1]; chronic relapsing remitting EAE): dramatically suppress disease activity; severity of disease (EAE [1]; mild EAE): attenuate the severity; course of disease (EAE [1]; severe EAE): delay the course; EAE clinical score, individual mouse (severe EAE; Day 17): 10 (2×) and 8 (2×); EAE clinical score, group average (ave) (severe EAE; Day 18): 8; EAE clinical score, individual mouse (severe EAE; Day 18): 11 (2×) and 6; EAE clinical score, group average (ave) (severe EAE; Day 19): 7; EAE clinical score, individual mouse (severe EAE; Day 19): 8 and 11 and 6; EAE clinical score, group average (ave) (severe EAE; Day 20): 7; EAE clinical score, individual mouse (severe EAE; Day 20): 8 and 11 and 5; EAE clinical score, group average (ave) (severe EAE; Day 21): 7; EAE clinical score, individual mouse (severe EAE; Day 21): 7 and 9 and 5; EAE clinical score, group average (ave) (severe EAE; Day 22): 7; EAE clinical score, individual mouse (severe EAE; Day 22): 9 (2×) and 5; effect on clinical scores of EAE (severe EAE): ineffective; Sum of Scores, group average (ave) (severe EAE): 102.3; Sum of Scores, individual mouse (severe EAE): 112 and 121 and 93 and 109 (2×) and 55 and 102 and 122 and 98; effect on disease severity (severe EAE): did not markedly decrease disease severity; effect on disease severity (EAE [2]): significantly decreases disease severity
L-glutamic acid polymer with L-alanine, L-lysine and L-tyrosine, acetate (salt) [Copaxone ®] | slight attenuation of disease course | 0 | 0 | 1 | 0 (7×) and 3 and 2 | 1 | 0 (5×) and 3 (2×) and 1 and 2 | 3 | 0 (3×) and 4 (2×) and 7 and 8 and 2 and 6 | 4 | 0 (2×) and 5 (2×) and 7 (2×) and 2 and 6 and 8 | 6 | 0 (2×) and 9 (3×) and 5 and 8 (2×) and 7 | 7 | 3 and 8 (5×) and 10 and 0 and 6 | 8 | 4 and 10 (6×) and 0 and 8 | 7 | 8 (4×) and 10 (2×) and 11 and 0 and 3 | 7 | efficacy previously observed in the T cell transmigration assay (T lymphocytes): lack of efficacy; gadolinium-enhancing lesions progressing to persistent black holes (R-R MS): significantly fewer; EAE clinical score, individual mouse (severe EAE; Day 17): 8 (2×) and 10 (2×); EAE clinical score, group average (ave) (severe EAE; Day 18): 7; EAE clinical score, individual mouse (severe EAE; Day 18): 9 and 8 and 10; EAE clinical score, group average (ave) (severe EAE; Day 19): 7; EAE clinical score, individual mouse (severe EAE; Day 19): 7 and 8 and 12; EAE clinical score, group average (ave) (severe EAE; Day 20): 6; EAE clinical score, individual mouse (severe EAE; Day 20): 5 and 8 and 11; EAE clinical score, group average (ave) (severe EAE; Day 21): 6; EAE clinical score, individual mouse (severe EAE; Day 21): 7 (2×) and 9; EAE clinical score, group average (ave) (severe EAE; Day 22): 6; EAE clinical score, individual mouse (severe EAE; Day 22): 5 (2×) and 9; effect on clinical scores of EAE (severe EAE): slight benefit; Sum of Scores, group average (ave) (severe EAE): 75.56; Sum of Scores, individual mouse (severe EAE): 56 and 88 and 117 and 95 and 0 and 100 and 87 (2×) and 50; effect on disease severity (severe EAE): did not markedly decrease disease severity; effect on disease severity (EAE [2]): significantly decreases disease severity; relapse rates, progression of disability, new MRI lesions, black holes (multiple sclerosis): reduce relapse rates
